According to PubChem BioAssay (NCI):
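Dose response: 5 concentrations. Exposure: 48 h. Format: 96-well plates. Endpoint: linear interpolation; highest concentration if not reached. At the TGI there is no net growth.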

Columns and labels:
Assay in all cases: NCI-60 cell line screen, 48 h
[1] = tested on: 786-0 renal
[2] = tested on: A549 NSCLC
[3] = tested on: ACHN renal
[4] = tested on: CAKI-1 renal
[5] = tested on: COLO 205 colon
[6] = tested on: DU-145 prostate
[7] = tested on: HCC-2998 colon
[8] = tested on: HOP-62 NSCLC
[9] = tested on: K-562 leukemia
[10] = tested on: MDA-MB-231 breast
[11] = tested on: NCI-H226 lung
[12] = tested on: NCI/ADR-RES ovarian
[13] = tested on: OVCAR-5 ovarian
[14] = tested on: OVCAR-8 ovarian
[15] = tested on: PC-3 prostate
[16] = tested on: SF-295 CNS
[17] = tested on: SK-MEL-28 melanoma
[18] = tested on: SN12C renal
[19] = tested on: SNB-75 CNS
[20] = tested on: T-47D breast

SMILES | TGI [1] | TGI [2] | TGI [3] | TGI [4] | TGI [5] | TGI [6] | TGI [7] | TGI [8] | TGI [9] | TGI [10] | TGI [11] | TGI [12] | TGI [13] | TGI [14] | TGI [15] | TGI [16] | TGI [17] | TGI [18] | TGI [19] | TGI [20]
COCn1c(=O)n(C)c(=O)c2c1nc1c(c(=O)n(C)c(=O)n1COC)[n+]2[O-] | > 100 µM | 91.2 µM | 38 µM | 64.5 µM | 31.8 µM | 94.9 µM | 18.1 µM | 59.1 µM | 24 µM | 44.4 µM | 40.8 µM | > 100 µM | 97.2 µM | 45.1 µM | 34.1 µM | 55.4 µM | > 100 µM | 83.7 µM | 22.3 µM | 41.8 µM
CC[C@]1(Cc2ccc(OC)c(OC)c2)C=[N+]([O-])O[C@H](OC2CCCCC2c2ccccc2)[C@@H]1OC(C)=O (stereo not given in full) | > 100 µM | > 100 µM | > 100 µM | 56.8 µM | 40.5 µM | > 100 µM | > 100 µM | > 100 µM | > 100 µM | > 100 µM | > 100 µM | > 100 µM | > 100 µM | > 100 µM | > 100 µM | > 100 µM | > 100 µM | > 100 µM | > 100 µM | > 100 µM
C=CC(C)CCC(C/C=C(\C)CCCC(C)C)C(=C)CCCC(C)C (stereo not given) | > 100 µM | > 100 µM | > 100 µM | > 100 µM | > 100 µM | > 100 µM | > 100 µM | > 100 µM | > 100 µM | > 100 µM | > 100 µM | > 100 µM | > 100 µM | > 100 µM | > 100 µM | > 100 µM | > 100 µM | > 100 µM | > 100 µM | > 100 µM
O=C1C(=Cc2cccc(Cl)c2)N=C(c2ccccc2)N1n1c(-c2ccccc2)nc2ccccc2c1=O | > 100 µM | > 100 µM | > 100 µM | > 100 µM | > 100 µM | > 100 µM | > 100 µM | 99.8 µM | > 100 µM | > 100 µM | > 100 µM | > 100 µM | > 100 µM | > 100 µM | > 100 µM | > 100 µM | > 100 µM | > 100 µM | > 100 µM | > 100 µM
Nc1nc(N)c2c(CCc3ccc(C(=O)N[C@@H](CCC(=O)O)C(=O)O)cc3)ccnc2n1 | > 100 µM | > 100 µM | > 100 µM | > 100 µM | > 100 µM | > 100 µM | 0.0952 µM | > 100 µM | > 100 µM | > 100 µM | > 100 µM | > 100 µM | > 100 µM | > 100 µM | > 100 µM | > 100 µM | > 100 µM | > 100 µM | > 100 µM | > 100 µM
Nc1c(C(=O)c2ccc(Cl)cc2)[nH]c(Nc2ccc(Cl)cc2)c1C(=S)Nc1ccccc1 | 9.41 µM | 13.9 µM | 5.08 µM | 23.2 µM | 16.5 µM | 24.1 µM | 7.7 µM | 20.5 µM | 17.8 µM | 18.1 µM | 19.4 µM | 13.3 µM | 27.3 µM | 11 µM | 41.2 µM | 5.87 µM | 14.4 µM | 22.5 µM | 6.6 µM | > 100 µM
